Data as given in a melting point compilation (Tetko et al.; mined from patent text by program, amines drawn as free bases though some values may be those of a salt).

SMILES | melting point [°C]
CC(C)(C)n1nc(Cc2ccncc2)c(C(N)=O)c1N | 125 to 127
CC(C)CCn1c(=O)c2c(N3CCN(C)CC3)cc(Cl)cc2n(Cc2ccccc2)c1=O | 62 to 68
COc1ccc(C2C(C(=O)/C=C/c3ccc(OCc4ccccc4)c(OC)c3)C(=O)CC(c3ccc(OCc4ccccc4)cc3)C2[N+](=O)[O-])cc1 (stereo not given) | 76 to 78
CCN(CC)S(=O)(=O)c1cc2c(c(C(=O)O)c1)OCCO2 | 149
O=C1CCCN1c1cccc(C(F)(F)F)c1 | 65 to 66
CCOP(=O)(Cc1ccc(NC(=O)CCc2cnoc2-c2ccc(Cl)cc2)cc1)OCC | 138 to 139
CC(C)(C)OC(=O)CCC(CCC(=O)OC(C)(C)C)(CCC(=O)OC(C)(C)C)NC(=O)C=C=C[N+](=O)[O-] | 140 to 141
CCc1nc(N)nc(N)c1N1CCN(c2ccc(C#N)cc2)CC1 | > 310
COC(=O)c1ccc(COc2c(C)c(C)c3c(c2C)C(c2ccc(C(C)C)cc2)C(C)(C)O3)cc1 (stereo not given) | 108 to 110
CC(C)(C)C(O)C(Oc1ccc(Cl)cc1)n1ccnc1 (stereo not given) | 145 to 147
COC(=O)c1ccc(SC)c(C(F)(F)F)c1 | 76 to 77
O=C(NCC1Cc2c(Cl)cc3c(c2O1)CCC3)OCc1ccccc1 (stereo not given) | 127 to 130
O=C1Nc2cc([N+](=O)[O-])ccc2OC1(C(F)F)C(F)F | 178 to 181
c1ccc2c(c1)CSSC2 | 77 to 78
CC1CCC(=NNc2ccccc2)c2ncc(CC(=O)O)c(=O)n21 (stereo not given) | 160 to 162
N#Cc1cccc(-c2ccco2)n1 | 90.2 to 90.3
S=C1CN=C(c2ccc(Cl)cc2)c2cc(I)ccc2N1 | 260 to 262
C[C@@H](n1cnc2c(Br)cc(Br)cc2c1=O)[C@](O)(Cn1cncn1)c1ccc(F)cc1F | 134 to 135
COC(=O)CCSCCOC1OC(COC(C)=O)C(OC(C)=O)C(OC(C)=O)C1OC(C)=O (stereo not given) | 81 to 82
CC(=O)OCc1ccc(C=O)cc1 | 32
CCOC(=O)C1=CCCCC1S(=O)(=O)Nn1cccc1Cl (stereo not given) | 60 to 61
Cc1c(OCC(=O)O)cc2c(c1Cl)C(=O)C1(CCCC1)C2=O | 204 to 205
Nc1ccc2ccc(Oc3cccnc3)nc2n1 | 178
O=CN(O)C(CS(=O)(=O)c1ccccc1Oc1ccc(OC(F)(F)F)cc1)C(CO)CO (stereo not given) | 129 to 131
CCN(CC)c1ccc(-c2nc(-c3cc(OC)c(O)c(OC)c3)n(C(=O)NS(=O)(=O)c3ccc(C)cc3)c2-c2ccc(N(CC)CC)cc2)cc1 | 65

SMILES | melting point [°C]
O=C1c2ccccc2C(O)(c2ccccc2)N1CCCN1CC=C(c2ccccc2)CC1 (stereo not given) | 123
COc1cccc(-n2c(=O)[nH]c3c(C(N)=O)nc(-c4cccc(O)c4)nc32)c1F | > 260
O=C1CCCCc2cc(Cl)c(Cl)cc21 | > 250
O=c1cc(-c2ccccc2)nc2ccn(-c3ccccc3)n12 | 194 to 200
CCOC(=O)/C=C/c1cn(Cc2ccc3cc(OCc4ccccc4)ccc3c2)cc1-c1ccccc1 | 119 to 120
C=C1c2ccccc2C=Cn2c1nnc2S(C)=O (stereo not given) | 140 to 142
COc1ccc(NS(=O)(=O)c2cc(S(=O)(=O)Nc3ccc(OC)cc3C)c3cc(O)ccc3c2)c(C)c1 | 211 to 213
Cc1ccccc1NC1(C#N)CCN(C(=O)c2cc(C(F)(F)F)cc(C(F)(F)F)c2)CC1 | 141 to 142
COc1ccc(N2C(=O)C(N=[N+]=[N-])C2c2ccc(C(=O)O)cc2)cc1 (stereo not given) | 190
OC(COc1ccc(Cl)cc1Cl)(COc1ccc(Cl)cc1Cl)Cn1cncn1 | 136
C#Cc1ccc2c(c1)C(=O)N(c1ccc3c(c1)C=C3)C2=O | 191 to 192
CCOC(=O)C1=C(C)NC(N)=C(C(=O)OC(C)C)C1c1cccc([N+](=O)[O-])c1 (stereo not given) | 175 to 176
O=P(c1ccccc1)(c1ccccc1)c1ccc(P(=O)(c2ccccc2)c2ccccc2)nn1 | 248 to 252
CC(=O)OCC(=O)Nc1nc2c(Oc3cc(-c4ccc(C(F)(F)F)cc4)ncn3)cccc2s1 | 119 to 138
CSc1c(-c2ccccc2)[nH]c2ccccc12 | 103
CN1C=C(c2ccccc2)c2cccc(NC(=O)C=NO)c2C1 | 151
CCCCC(=O)OC1C(O)C(CO)OC1n1cnc2c(OC)nc(N)nc21 (stereo not given) | 83 to 86
Cc1ccc(=NC#N)n(-c2cccc(C(F)(F)F)c2)c1 | 165
COC(=O)NCCOc1cc(Oc2ccc(C(F)(F)F)cc2Cl)ccc1[N+](=O)[O-] | 91 to 92
CC(C)(C)C(=O)C(Br)Cc1ccc(Cl)cc1 (stereo not given) | 48 to 50
CC(C)CN(CC(=O)O)S(=O)(=O)c1ccc(N2CCC(c3ccccc3)CC2)cc1 | 140 to 143
N=C(N)Nc1nc(CSCCNC2=NS(=O)N=C2O)cs1 (stereo not given) | 148 to 151
Cc1cc(C)c(C2C(=O)N3CCOCCN3C2=O)c(C)c1 | 248 to 250
CN(C)n1c(Cl)n[nH]c1=O | 158
CC(C)(C)C1=NN(c2ccc(C(=O)O)cc2)C(c2cccc(F)c2)C1 (stereo not given) | 218
